Experimental findings from patent US5200409A, “Composition and use of substituted 1,3-dithiolo-and 1,4-dithiinoquinoxalines as an antimicrobial” (The Dow Chemical Company, priority 1992, dated 1993) are described below.

Values after ≈ are worked out from the molar mass of the structure shown. Where two headings read alike, the source gives them in different places. Where only a bound is given, the exact number is not on record here.

One test deals with Candida albicans (Ca). The test is described as follows: Minimum inhibitory concentration (MIC) in malt yeast agar. Particulars: read-out: Minimum Inhibitory Concentration, Ca. The test is classed as cell-based, Candida albicans ATCC 10231. An outline of the steps: (§1)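 Compound dispersed in malt yeast agar at final 500, 250, 100, 50, 25, 10, 5, 2.5, 1.0 and 0 ppm (from 1% acetone/water solution); plates dried 24 h, then inoculated with saline/octylphenoxy polyethoxy ethanol suspensions of 7-day cultures diluted 1:9. Incubated at 30° C; read at 48 h for yeast, 72 h for fungi.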

The next test deals with Bacillus subtilis (Bs). The test is described as follows: Minimum inhibitory concentration (MIC) in nutrient agar. The format is cell-based, Bacillus subtilis ATCC 8473. The method, boiled down: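 Agar dilution: compound from a 1% acetone/water solution is mixed into nutrient agar at pH 6.8 (neutral) or pH 8.2 (alkaline, tricine-buffered) at final 500 to 1.0 ppm plus zero. Dried plates were replicator-inoculated with 10^8 CFU/ml suspensions and incubated 48 h at 30° C, then scored for growth.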

The subject of a further test is marine organisms. The test is described as follows: Marine antifouling rating of coated test panels exposed to the marine environment. The conditions noted are these: scale 10 (completely free of growth) to 0 (completely covered); for Marine Antifouling Rating, 3 Week Test, Top Panel / Marine Antifouling Rating, 3 Week Test, Bottom Panel: 3 weeks; for Marine Antifouling Rating, 3 Week Test, Top Panel / Marine Antifouling Rating, 6 Week Test, Top Panel: topside, white background; for Marine Antifouling Rating, 3 Week Test, Bottom Panel / Marine Antifouling Rating, 6 Week Test, Bottom Panel: underside, black background; for Marine Antifouling Rating, 6 Week Test, Top Panel / Marine Antifouling Rating, 6 Week Test, Bottom Panel: 6 weeks. On the procedure: Test panels are prepared from clear, rigid polyvinyl chloride film that is 0.381×10^-3 m thick and has one textured surface. The test panels are 0.1524 m by 0.1524 m squares that have 0.00635 m holes punched at corners on 0.127 m centers. A 0.102 square template, with a 0.067 m diameter hole at the center, is attached to the center of the textured surface of the test panels.
A candidate marine antifoulant compound (1.0 g) is stirred into a resinous latex binder (9.0 g). A portion of the compound/binder mixture (1.5 g) is added to the center of the test panel and uniformly spread over the circular area inside the template.
Water is added dropwise as needed to properly spread the compound/binder mixture. The template prevents the compound/binder mixture from spreading beyond the uncovered area. The test panel is allowed to sit for between ten to thirty minutes until the edge of the spread compound/binder mixture has dried. The template is then removed. The test panel is then allowed to dry for 8 to 12 hours at room temperature.
Two test panels are prepared for each candidate marine antifoulant compound. Two control test panels are also prepared by only treating with the resinous latex binder. One test panel of each candidate marine […] compound is attached over a white background to the topside of an exposure support apparatus. The second test panel is attached over a black background to the underside of the exposure support apparatus. The exposure support apparatus is placed horizontally 0.0254 m under a marine surface with the white background topside facing up. The exposure support apparatus is exposed to the marine environment for both 3 and 6 weeks during which time the control test panels become substantially covered with mature marine organism growth on both the topside and underside exposures.
After being removed from the exposure support apparatus, each test panel is inspected and rated for marine organism growth on both the treated and untreated areas of the test panel. The marine organisms present on the treated and untreated areas are noted. The presence of algea spores and bacterial slime are noted but not included in rating each test panel. The test panels are rated on a scale from 10 (representing completely free of marine organism growth) to 0 (representing completely covered with marine organism growth).

Test [1] relates to Saccharomyces cerevisiae (Sc). The test is described as follows: Minimum inhibitory concentration (MIC) in malt yeast agar. The test is classed as cell-based, Saccharomyces cerevisiae ATCC 4105. The conditions noted are these: read-out: Minimum Inhibitory Concentration, Sc. An outline of the steps:
as §1

Where [2] appears, read: pH 6.8, nutrient agar, 30° C., 48 hours, read-out: Minimum Inhibitory Concentration, Bs.
[3] abbreviates: 48 h, pH 6.8, read-out: Minimum Inhibitory Concentration, Bs.
The mark [4] stands for this setting: 48 h, pH 8.2, read-out: Minimum Inhibitory Concentration, Bs.
Where [5] appears, read: malt yeast agar, 30° C., 48 hours for yeast.

Regarding `N#CC1=C(C#N)Sc2nc3cc([N+](=O)[O-])ccc3nc2S1` [A, 7-nitro-1,4-dithiino-(2,3-b)-quinoxaline-2,3-dicarbonitrile], the MIC with Candida albicans (Ca) (48 h) turned out to be 2.5 µg/mL (≈ 7.98 µM). For the same molecule, in the test on Bacillus subtilis (Bs) (setting [2]), the MIC is less than 10 µg/mL. Also, the MIC in the test on Bacillus subtilis (Bs) (pH 8.2, nutrient agar, 30° C., 48 hours, read-out: Minimum Inhibitory Concentration, Bs) was 100 µg/mL (≈ 319 µM). Moreover, in the test with marine organisms, the “Marine Antifouling Rating, 3 Week Test, Top Panel” value was found to be 9; the “Marine Antifouling Rating, 3 Week Test, Bottom Panel” value worked out at 9; the “Marine Antifouling Rating, 6 Week Test, Top Panel” value worked out at 8; the “Marine Antifouling Rating, 6 Week Test, Bottom Panel” value stood at 3. In addition, the MIC in test [1] (48 h) is 2.5 µg/mL (≈ 7.98 µM).
In the case of `N#CC1=C(C#N)Sc2nc3cc([N+](=O)[O-])c([N+](=O)[O-])cc3nc2S1` [B, 7,8-Dinitro-1,4-dithiino-(2,3-b)quinoxaline-2,3-dicarbonitrile], the MIC in the test with Candida albicans (Ca) (48 h) is 25 µg/mL (≈ 69.8 µM). Also, the MIC in the test with Bacillus subtilis (Bs) (setting [3]) is 500 µg/mL (≈ 1400 µM). The MIC in the test with Bacillus subtilis (Bs) (setting [4]) turned out to be 25 µg/mL (≈ 69.8 µM). In addition, in the test on marine organisms, the “Marine Antifouling Rating, 3 Week Test, Top Panel” value is on record as 6; the “Marine Antifouling Rating, 3 Week Test, Bottom Panel” value came to 3; the “Marine Antifouling Rating, 6 Week Test, Top Panel” value is 3; the “Marine Antifouling Rating, 6 Week Test, Bottom Panel” value is given as 0. In addition, the MIC in test [1] (48 h) was found to be 25 µg/mL (≈ 69.8 µM).
For the molecule `N#CC1=C(C#N)Sc2nc3cc(Cl)ccc3nc2S1` [C, 7-chloro-1,4-dithiino-(2,3-b)-quinoxaline-2,3-dicarbonitrile], the MIC is less than 10 µg/mL in the test on Candida albicans (Ca) (setting [5]), 25 µg/mL (≈ 82.6 µM) in the test with Bacillus subtilis (Bs) (setting [4]), 25 µg/mL (≈ 82.6 µM) with Bacillus subtilis (Bs) (setting [2]) and less than 10 µg/mL in test [1] (setting [5]). In addition, the “Marine Antifouling Rating, 3 Week Test, Top Panel” value in the test on marine organisms came out at 0. In addition, in the test on marine organisms, the “Marine Antifouling Rating, 3 Week Test, Bottom Panel” value was determined as 9. In addition, the “Marine Antifouling Rating, 6 Week Test, Top Panel” value in the test on marine organisms worked out at 5. The “Marine Antifouling Rating, 6 Week Test, Bottom Panel” value in the test with marine organisms was found to be 0.
On to `Cc1ccc2nc3c(nc2c1)SC(C#N)=C(C#N)S3` [D, 7-Methyl-1,4-dithiino-(2,3-b)quinoxaline-2,3-dicarbonitrile], for which the MIC was determined as 50 µg/mL (≈ 177 µM) in the test on Candida albicans (Ca) (48 h), 250 µg/mL (≈ 885 µM) in the test on Bacillus subtilis (Bs) (setting [4]), 25 µg/mL (≈ 88.5 µM) with Bacillus subtilis (Bs) (setting [2]) and 25 µg/mL (≈ 88.5 µM) in test [1] (48 h). In addition, the “Marine Antifouling Rating, 3 Week Test, Top Panel” value with marine organisms was determined as 4. Moreover, the “Marine Antifouling Rating, 3 Week Test, Bottom Panel” value in the test on marine organisms was 3. The “Marine Antifouling Rating, 6 Week Test, Top Panel” value in the test with marine organisms is on record as 3. Besides, in the test on marine organisms, the “Marine Antifouling Rating, 6 Week Test, Bottom Panel” value is given as 0.
Turning to `N#CC1=C(C#N)Sc2nc3ccccc3nc2S1` [E, 1,4-dithiino-(2,3-b)-quinoxaline-2,3-dicarbonitrile], the MIC is less than 10 µg/mL with Candida albicans (Ca) (setting [5]), greater than 500 µg/mL with Bacillus subtilis (Bs) (setting [4]), 50 µg/mL (≈ 186 µM) in the test on Bacillus subtilis (Bs) (setting [2]) and less than 10 µg/mL in test [1] (setting [5]). For the same molecule, in the test with marine organisms, the “Marine Antifouling Rating, 3 Week Test, Top Panel” value came to 8. Moreover, the “Marine Antifouling Rating, 3 Week Test, Bottom Panel” value in the test on marine organisms is 4. Besides, the “Marine Antifouling Rating, 6 Week Test, Top Panel” value in the test on marine organisms came to 9. Besides, in the test with marine organisms, the “Marine Antifouling Rating, 6 Week Test, Bottom Panel” value is on record as 0.
On to `N#CC(C#N)=C1Sc2nc3ccc([N+](=O)[O-])cc3nc2S1` [L, 6-nitro-1,3-dithiolo-(4,5-b)-quinoxaline-2-ylidene-propanedinitrile], for which the MIC with Candida albicans (Ca) (setting [5]) was 10 µg/mL (≈ 31.9 µM); in the test with Bacillus subtilis (Bs) (setting [3]), 100 µg/mL (≈ 319 µM); with Bacillus subtilis (Bs) (setting [4]), greater than 500 µg/mL; in test [1] (setting [5]) it was 5 µg/mL (≈ 16 µM). In the test with marine organisms, the “Marine Antifouling Rating, 3 Week Test, Top Panel” value was 7. Moreover, the “Marine Antifouling Rating, 3 Week Test, Bottom Panel” value in the test on marine organisms is on record as 7. Also, the “Marine Antifouling Rating, 6 Week Test, Top Panel” value in the test with marine organisms is 9. In the test with marine organisms, the “Marine Antifouling Rating, 6 Week Test, Bottom Panel” value is on record as 0.
Take `N#CC(C#N)=C1Sc2nc3cc([N+](=O)[O-])c([N+](=O)[O-])cc3nc2S1` [M, 6,7-dinitro-1,3-dithiolo-(4,5-b)-quinoxaline-2-ylidene-propanedinitrile]: the MIC in the test with Candida albicans (Ca) (48 h) was determined as 2.5 µg/mL (≈ 6.98 µM). For the same molecule, the MIC in the test on Bacillus subtilis (Bs) (setting [3]) was found to be 100 µg/mL (≈ 279 µM). Moreover, in the test with Bacillus subtilis (Bs) (setting [4]), the MIC worked out at 250 µg/mL (≈ 698 µM). In the test on marine organisms, the “Marine Antifouling Rating, 3 Week Test, Top Panel” value is 9; the “Marine Antifouling Rating, 3 Week Test, Bottom Panel” value turned out to be 9; the “Marine Antifouling Rating, 6 Week Test, Top Panel” value is 5; the “Marine Antifouling Rating, 6 Week Test, Bottom Panel” value was determined as 1. For the same molecule, the MIC in test [1] (48 h) stood at 2.5 µg/mL (≈ 6.98 µM).
For the molecule `N#CC(C#N)=C1Sc2nc3ccc(Cl)cc3nc2S1` [O, 6-chloro-1,3-dithiolo-(4,5-b)-quinoxaline-2-ylidene-propanedinitrile], the MIC with Candida albicans (Ca) (setting [5]) was greater than 500 µg/mL. Also, the MIC with Bacillus subtilis (Bs) (setting [3]) is greater than 500 µg/mL. The MIC with Bacillus subtilis (Bs) (setting [4]) is greater than 500 µg/mL. In the test with marine organisms, the “Marine Antifouling Rating, 3 Week Test, Top Panel” value is recorded as 0; the “Marine Antifouling Rating, 3 Week Test, Bottom Panel” value is recorded as 2; the “Marine Antifouling Rating, 6 Week Test, Top Panel” value was 6; the “Marine Antifouling Rating, 6 Week Test, Bottom Panel” value was 0. Also, in test [1] (setting [5]), the MIC is greater than 500 µg/mL.
